Measurements: patent US20060240494A1, “Biocidal molecules, macromolecular targets and methods of production and use” (priority 2000, published 2006)
Residues, ends and D or L forms follow the SMILES beside them. *: point of attachment. 5FAM = O=C1OC2(c3ccc(O)cc3Oc3cc(O)ccc32)c2ccc(C(=O)*)cc21

How the values were obtained:
GrpE = target: T1, GrpE (Escherichia coli, UniProt P09372); test: Fluorescence polarization binding of fluorescein-labeled peptides to GrpE; conditions: GrpE at both concentrations (4 μM and 2 μM); peptide 1 nM; blank about 62
T1 construct: purchased; host or cells: E. coli
T1 sequence (P09372 whole entry): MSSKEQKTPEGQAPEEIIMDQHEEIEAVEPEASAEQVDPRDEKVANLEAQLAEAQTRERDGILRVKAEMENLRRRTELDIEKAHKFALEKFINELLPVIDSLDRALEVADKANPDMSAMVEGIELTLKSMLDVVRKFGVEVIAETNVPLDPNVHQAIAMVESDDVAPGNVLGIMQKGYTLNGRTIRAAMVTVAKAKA
Description: (§1) All solid-phase assays that separate the bound form of the ligand from the free form are suspect. Therefore, in the next step, the binding of labeled peptides to the heat shock/chaperone proteins and to LPS was observed by fluorescence polarization.
(§2) In one example, three fluorescein-labeled peptides were synthesized with the fluorescein label attached at the N-terminus of the peptide: fluorescein-K-pyrrhocoricin (N-F-pyrrhocoricin), fluorescein-K-drosocin (unglycosylated; N-F-drosocin), and fluorescein-K-apidaecin (N-F-apidaecin). A C-terminally labeled peptide was also made, i.e., pyrrhocoricin-K-fluorescein (C-F-pyrrhocoricin). The C-terminally labeled pyrrhocoricin peptide (C-F-pyrrhocoricin) was made to investigate the possibility of spatial separation of the active sites. From earlier experiments, it was clear that pyrrhocoricin and drosocin bind to the receptor(s) with their two terminal domains [Hoffmann, R. et al, (1999) Biochim. Biophys. Acta, 1426: 459-467; McManus, A. et al, (1999) Biochemistry, 38: 705-714].
(§3) During fluorescence polarization, positive signals are detected only when the free rotation of the fluorescein attached to one of the interacting partners is slowed down due to binding to the other partner when this label is not exceedingly far from the site of interaction. […]

[1] = target: E. coli DnaK aa513-551 (A-B helix fragment) (Escherichia coli, UniProt P0A6Y8); test: Fluorescence polarization with DnaK A-B helix fragment; format: binding
Chain of E. coli DnaK aa513-551 (A-B helix fragment) (P0A6Y8 514-552 limits assumed): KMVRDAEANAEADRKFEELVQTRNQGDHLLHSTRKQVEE

Hsp60 = target: T2, Hsp60 (Homo sapiens, UniProt P10809); test: Fluorescence polarization binding of fluorescein-labeled peptides to Hsp60; conditions: peptide 1 nM, blank about 62
T2 construct: purchased; host or cells: E. coli
T2 sequence (P10809 27-573): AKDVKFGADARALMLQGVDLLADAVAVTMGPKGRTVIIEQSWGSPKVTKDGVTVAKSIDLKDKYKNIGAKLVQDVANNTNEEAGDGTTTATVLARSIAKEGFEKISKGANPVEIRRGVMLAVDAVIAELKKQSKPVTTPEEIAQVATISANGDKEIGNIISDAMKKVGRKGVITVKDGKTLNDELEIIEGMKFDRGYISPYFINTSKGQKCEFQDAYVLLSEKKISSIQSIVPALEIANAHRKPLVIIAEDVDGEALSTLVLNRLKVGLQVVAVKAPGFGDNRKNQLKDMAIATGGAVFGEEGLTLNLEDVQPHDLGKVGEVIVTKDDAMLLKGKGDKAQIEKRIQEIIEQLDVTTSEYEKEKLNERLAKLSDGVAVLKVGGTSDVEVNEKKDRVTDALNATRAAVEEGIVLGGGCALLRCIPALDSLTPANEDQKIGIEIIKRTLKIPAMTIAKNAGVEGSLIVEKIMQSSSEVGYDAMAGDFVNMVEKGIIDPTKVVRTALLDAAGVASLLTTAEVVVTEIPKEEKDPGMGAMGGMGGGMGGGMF
Description: as §1, §2, §3

Ras = test: Fluorescence polarization binding of fluorescein-labeled peptides to Ras (negative control protein); conditions: Ras at both concentrations (4 μM and 2 μM); peptide 1 nM; blank about 62
Description: as §1, §2, §3

[2] = target: T3, S. aureus DnaK 554-585 (D-E helix fragment) (Staphylococcus aureus, UniProt P45554); test: Fluorescence polarization with S. aureus DnaK D-E helix fragment; format: binding
T3 sequence (P45554 554-585 limits assumed): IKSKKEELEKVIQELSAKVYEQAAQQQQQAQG

Hsp70 = Hsp70 (Homo sapiens, UniProt P0DMV8); test: Fluorescence polarization binding of fluorescein-labeled peptides to Hsp70; design: purchased; host or cells: E. coli; conditions: Hsp70 at both concentrations (4 μM and 2 μM); peptide 1 nM; blank about 62
Chain of Hsp70 (P0DMV8 whole entry): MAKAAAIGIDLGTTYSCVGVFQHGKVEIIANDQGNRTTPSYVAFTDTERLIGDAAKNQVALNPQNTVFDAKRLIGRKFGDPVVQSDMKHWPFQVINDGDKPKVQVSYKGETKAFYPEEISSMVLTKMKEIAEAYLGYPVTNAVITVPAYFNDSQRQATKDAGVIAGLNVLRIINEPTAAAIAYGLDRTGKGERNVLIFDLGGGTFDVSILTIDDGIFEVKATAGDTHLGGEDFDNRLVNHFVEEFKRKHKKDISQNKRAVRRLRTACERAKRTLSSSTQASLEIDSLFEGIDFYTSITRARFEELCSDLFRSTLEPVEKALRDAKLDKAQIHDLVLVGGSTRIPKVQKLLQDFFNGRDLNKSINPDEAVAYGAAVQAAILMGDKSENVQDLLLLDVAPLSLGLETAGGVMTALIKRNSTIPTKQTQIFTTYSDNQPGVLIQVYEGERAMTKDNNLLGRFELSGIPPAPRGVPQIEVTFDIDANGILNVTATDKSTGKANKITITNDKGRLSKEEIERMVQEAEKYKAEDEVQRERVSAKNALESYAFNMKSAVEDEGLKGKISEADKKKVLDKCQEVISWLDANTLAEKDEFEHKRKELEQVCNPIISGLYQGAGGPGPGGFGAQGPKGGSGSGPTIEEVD
Description: as §1, §2, §3

[3] = target: E. coli DnaK fragment aa397-439 (conventional peptide binding pocket) (Escherichia coli, UniProt P0A6Y8); test: Fluorescence polarization with DnaK fragment aa397-439; conditions: PBS; qualitative
Chain of E. coli DnaK fragment aa397-439 (conventional peptide binding pocket) (P0A6Y8 397-439): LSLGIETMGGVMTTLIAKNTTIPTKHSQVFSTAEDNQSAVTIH

E. coli DnaK aa596-637 = E. coli DnaK aa596-637 (Escherichia coli, UniProt P0A6Y8); test: Fluorescence polarization with DnaK extreme C-terminus fragment; format: binding; conditions: PBS; qualitative
Chain of E. coli DnaK aa596-637 (P0A6Y8 597-638): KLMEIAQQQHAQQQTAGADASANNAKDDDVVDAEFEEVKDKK

[4] = target: E. coli DnaK fragment aa583-615 (D-E helix hinge) (Escherichia coli, UniProt P0A6Y8); test: Fluorescence polarization with synthetic DnaK fragment aa583-615; format: binding; conditions: Tris HCl at pH 8.0; labeled peptide 1 nM
Chain of E. coli DnaK fragment aa583-615 (D-E helix hinge) (P0A6Y8 584-616): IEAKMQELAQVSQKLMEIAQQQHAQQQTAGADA
Procedure: The binding of the synthetic DnaK fragments to their fluorescein-labeled pyrrhocoricin counterparts was also assessed in solution, by fluorescence polarization [Lundblad, J. R. et al, (1996) Mol. Endocrinol. 10: 607-612]. For these experiments, the unlabeled peptides were serially diluted in PBS (pH 7.4) or 0.1 M Tris-HCl (pH 8.0) containing 0.1 M ethylene-diamine-tetraacetic acid (EDTA) in 50 μL final volume in 6×50 mm disposable glass borosilicate tubes. The fluoresceinated peptides were added to each tube in a 50 μL aliquot to a final concentration of 1 nM and tubes were incubated at 37° C. for 5 minutes. The extent of fluorescence anisotropy was measured on a Beacon 2000 fluorescence polarization instrument (PanVera, Madison, Wis.) and calculated as millipolarization values. The filters used were 485 nm excitation and 535 nm emission with 3 nm band width. Non-linear curve fitting was done by using a dose-response logistical transition [y=a0+a1/(1+x/a2)^a^3] and the Levenberg-Marquardt Algorithm within the SlideWrite software package. The provided Kd value (a2 coefficient) was calculated by the program.
To quantitatively characterize the pyrrhocoricin—D-E helix interaction, the complete binding curves were measured for E. coli DnaK fragments aa583-615 and aa588-615, both of SEQ ID NO: 10.

GroES = target: T4, GroES (Escherichia coli, UniProt P0A6F9); test: Fluorescence polarization binding of fluorescein-labeled peptides to GroES; conditions: GroES at both concentrations (4 μM and 2 μM); peptide 1 nM; blank about 62
T4 construct: purchased; host or cells: E. coli
T4 sequence (P0A6F9 whole entry): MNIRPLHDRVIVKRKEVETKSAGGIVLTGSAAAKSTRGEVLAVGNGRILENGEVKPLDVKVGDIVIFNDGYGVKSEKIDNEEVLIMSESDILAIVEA
Description: as §1, §2, §3

GroEL = GroEL (Escherichia coli, UniProt P0A6F5); test: Fluorescence polarization binding of fluorescein-labeled peptides to GroEL; design: purchased; host or cells: E. coli; species or system E. coli; conditions: peptide 1 nM, blank about 62
Chain of GroEL (P0A6F5 2-548 limits assumed): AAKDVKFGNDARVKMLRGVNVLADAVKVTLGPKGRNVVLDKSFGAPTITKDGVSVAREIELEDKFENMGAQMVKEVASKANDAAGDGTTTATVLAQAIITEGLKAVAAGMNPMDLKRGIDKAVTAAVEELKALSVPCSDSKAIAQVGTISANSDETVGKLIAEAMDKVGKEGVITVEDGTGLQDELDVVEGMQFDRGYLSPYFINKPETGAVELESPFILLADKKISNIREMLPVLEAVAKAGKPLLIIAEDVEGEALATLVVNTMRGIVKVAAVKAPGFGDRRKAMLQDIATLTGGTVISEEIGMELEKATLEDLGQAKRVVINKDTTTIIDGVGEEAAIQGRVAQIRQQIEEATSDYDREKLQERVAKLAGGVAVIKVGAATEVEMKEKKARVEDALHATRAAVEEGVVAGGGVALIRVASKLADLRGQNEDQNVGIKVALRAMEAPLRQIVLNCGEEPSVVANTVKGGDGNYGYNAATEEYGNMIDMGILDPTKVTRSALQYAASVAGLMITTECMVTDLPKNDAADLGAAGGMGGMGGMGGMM
Description: (§4) All solid-phase assays that separate the bound form of the ligand from the free form are suspect.
(§5) In one example, three fluorescein-labeled peptides were synthesized with the fluorescein label attached at the N-terminus of the peptide: fluorescein-K-pyrrhocoricin (N-F-pyrrhocoricin), fluorescein-K-drosocin (unglycosylated; N-F-drosocin), and fluorescein-K-apidaecin (N-F-apidaecin). […] Biophys. Acta, 1426: 459-467; McManus, A. et al, (1999) Biochemistry, 38: 705-714].
(§6) During fluorescence polarization, positive signals are detected only when the free rotation of the fluorescein attached to one of the interacting partners is slowed down due to binding to the other partner when this label is not exceedingly far from the site of interaction. If the label is placed too far from the binding site, the flexibility of peptide-like structures will resume free rotation of the fluorescein moiety, resulting in no polarization anisotropy, even if positive binding occurs. As a negative control fluorescein-labeled peptide, a fragment of the […] of human tubulin was used [Otvos, L., Jr. et al, (1998) Protein and Peptide Lett., 5: 207-213].
The same heat shock proteins and LPS preparations were used as in the Western-blotting, except DnaJ was not studied. Ras was used as a negative control protein. […]

[5] = target: blocked E. coli DnaK fragment aa591-615 (Escherichia coli, UniProt P0A6Y8); format: binding; conditions: PBS; qualitative
Chain of blocked E. coli DnaK fragment aa591-615 (P0A6Y8 592-616 limits assumed): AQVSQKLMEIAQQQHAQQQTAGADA

DnaK = DnaK (Escherichia coli, UniProt P0A6Y8); test: Fluorescence polarization binding of fluorescein-labeled peptides to DnaK; design: purchased; host or cells: E. coli; species or system E. coli; conditions: for minipolarization value: peptide 1 nM, blank about 62
Chain of DnaK (P0A6Y8 whole entry): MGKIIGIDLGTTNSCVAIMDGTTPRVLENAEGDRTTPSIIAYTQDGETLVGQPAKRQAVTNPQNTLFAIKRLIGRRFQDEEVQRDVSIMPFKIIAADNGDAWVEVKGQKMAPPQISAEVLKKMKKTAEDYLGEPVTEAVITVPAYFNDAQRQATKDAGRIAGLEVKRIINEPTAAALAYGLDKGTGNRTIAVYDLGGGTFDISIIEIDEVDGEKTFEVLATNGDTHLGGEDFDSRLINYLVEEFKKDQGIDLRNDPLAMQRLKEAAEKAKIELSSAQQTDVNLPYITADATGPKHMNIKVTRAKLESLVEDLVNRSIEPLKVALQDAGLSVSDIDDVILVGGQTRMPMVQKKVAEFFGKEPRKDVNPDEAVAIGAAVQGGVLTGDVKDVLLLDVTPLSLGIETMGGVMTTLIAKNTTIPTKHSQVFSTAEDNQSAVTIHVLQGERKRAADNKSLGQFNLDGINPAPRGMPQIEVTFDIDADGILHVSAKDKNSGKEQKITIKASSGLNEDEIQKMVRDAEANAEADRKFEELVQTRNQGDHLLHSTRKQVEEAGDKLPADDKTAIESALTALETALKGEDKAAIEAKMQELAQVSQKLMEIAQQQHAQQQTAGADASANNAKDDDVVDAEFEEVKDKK
Description: as §4, §5, §6
The same heat shock proteins and LPS preparations were used as in the Western-blotting, except DnaJ was not studied. Ras was used as a negative control protein. The fluorescein-K-pyrrhocoricin—DnaK binding study was repeated with an additional DnaK preparation, purchased from another source. The labeled peptides were used in fixed 1 nM concentrations. […] The initial concentration of LPS was set to 0.5 mg/ml, and dilutions were made until 0.031 mg/ml.

Question: How did the minipolarization value (GrpE) turn out when `CC[C@H](C)[C@H](NC(=O)[C@@H]1CCCN1C(=O)[C@H](CCCNC(=N)N)NC(=O)[C@@H]1CCCN1C(=O)[C@@H]1CCCN1C(=O)[C@@H](NC(=O)[C@@H]1CCCN1C(=O)[C@H](CCCNC(=N)N)NC(=O)[C@@H]1CCCN1C(=O)[C@H](CC(C)C)NC(=O)[C@H](Cc1ccc(O)cc1)NC(=O)[C@H](CO)NC(=O)CNC(=O)[C@H](CCCCN)NC(=O)[C@H](CC(=O)O)NC(=O)[C@@H](NC(=O)[C@H](CCCCN)NC(=O)c1ccc2c(c1)C(=O)OC21c2ccc(O)cc2Oc2cc(O)ccc21)C(C)C)[C@@H](C)O)C(=O)N[C@@H](Cc1ccc(O)cc1)C(=O)N[C@@H](CC(N)=O)C(=O)N[C@@H](CCCNC(=N)N)C(=O)N[C@@H](CC(N)=O)C(=O)O` [N—F-pyrrhocoricin] (5FAM-KVDKGSYLPRPTPPRPIYNRN-OH; C-terminus assumed) was run?
Answer: Its minipolarization value is “under 62”.

Question: And the “binding to E. coli A-B helix fragment” value ([1]; PBS, qualitative)?
Answer: The value was “No interaction above the level of the negative control”.

Question: What about the “binding to E. coli A-B helix fragment” value ([1]; Tris HCl at pH 8.0) of the same molecule?
Answer: The value was “did not bind”.

Question: And the minipolarization value (Hsp60; 2 μM Hsp60)?
Answer: Its minipolarization value is “about 62”.

Question: And the minipolarization value (Hsp60; 4 μM Hsp60)?
Answer: Its minipolarization value is “about 90”.

Question: And the minipolarization value (Ras)?
Answer: The minipolarization value was “under 62”.

Question: What about the “binding to D-E helix fragment of S. aureus DnaK” value ([2]; PBS, qualitative) of the same molecule?
Answer: The value was “No interaction above the level of the negative control”.

Question: What about the “binding to S. aureus D-E helix fragment” value ([2]; Tris HCl at pH 8.0) of the same molecule?
Answer: The value was “did not bind”.

Question: And the minipolarization value (Hsp70)?
Answer: The minipolarization value was “under 62”.

Question: What about the “binding to fragment aa397-439” value [3] of the same molecule?
Answer: The value was “weakly”.

Question: What about the “binding to E. coli extreme C-terminus fragment” value (E. coli DnaK aa596-637) of the same molecule?
Answer: The value was “No interaction above the level of the negative control”.

Question: And the “binding to E. coli D-E helix hinge region aa583-615” value [4]?
Answer: The value was “concentration-dependent binding”.

Question: And the minipolarization value (GroES)?
Answer: The minipolarization value was “under 62”.

Question: And the minipolarization value (GroEL; 2 μM Gro EL)?
Answer: The minipolarization value was “about 85”.

Question: And the minipolarization value (GroEL; 4 μM Gro EL)?
Answer: The minipolarization value was “over 100”.

Question: What about the “binding to blocked E. coli DnaK fragment aa591-615” value [5] of the same molecule?
Answer: The value was “bound strongly”.

Question: What about the “millipolarization values higher over the background” value (DnaK; 1 nM peptide bound to DnaK) of the same molecule?
Answer: The value was 50%.

Question: What about the minipolarization value (DnaK; 2 μM DnaK) of the same molecule?
Answer: The minipolarization value was “about 95”.

Question: What about the minipolarization value (DnaK; 4 μM DnaK) of the same molecule?
Answer: The minipolarization value was “about 100”.
